Laboratory results taken from patent publication US12528837B2, “Aryl substituted polymyxin derivatives” (priority 2018, dated 2026).
Converted amounts (≈) assume the structure as drawn. Like-named read-outs stand apart in the source and are kept apart here. *1 amine or outer side, *2 acyl side, *3 side chain or, on linkers, in order; H or OH if unused. Where a SMILES comes first, the peptide text is derived from it. Bridges are numbered along the chain shown (N, C = ends). [ ]: non-standard residue; d: D form. The star is where a group is joined. GABA(3S-Bn) = O=C(C[C@@H](CN[*:1])Cc1ccccc1)[*:2]; GABA(3R-Bn) = O=C(C[C@H](CN[*:1])Cc1ccccc1)[*:2]; X14 = NC[C@@H](CC(=O)*)c1cccc(-c2ccsc2)c1; X20 = NC[C@H](CC(=O)*)c1cccc(-c2ccccc2)c1; X23 = NC[C@H](CC(=O)*)c1cccc(-c2ccsc2)c1; X18 = NC[C@@H](CC(=O)*)c1cc(Cl)cc(Cl)c1; X24 = NCC[C@@H](C(=O)*)c1ccc(Cl)cc1; X25 = NCC[C@@H](C(=O)*)c1cccc(Cl)c1; X1 = NC[C@@H](CC(=O)*)c1cccc(Cl)c1; X10 = Cc1cccc([C@@H](CN)CC(=O)*)c1; dNle = CCCC[C@@H](N)C(=O)O; Dab = NCC[C@H](N)C(=O)O; Abu = CC[C@H](N)C(=O)O; Dap = NC[C@H](N)C(=O)O

Assays:
E. coli CA58 = assay type: cell-based
Method: (§1) The inoculum was prepared by making a direct suspension of isolated colonies (selected from an 18-24 hour Mueller-Hinton agar plate) adjusted to the 0.5 McFarland standard. […] The assays were performed in duplicate. […] Several of the compounds were subjected to multiple tests, and where this is the case, the MIC presented is the median value obtained. The MIC values are quoted in μg/mL.

K. pneumoniae CA64 = assay type: cell-based
Method: as §1

P. aeruginosa CCUG 59347 = assay type: cell-based
Method: as §1

E. coli ATCC 25922 = assay type: cell-based; conditions: cation-adjusted Mueller-Hinton Broth, 18-20 h, 35° C.
Method: (§2) The inoculum was prepared by making a direct suspension of isolated colonies (selected from an 18-24 hour Mueller-Hinton agar plate) adjusted to the 0.5 McFarland standard. […] The assays were performed in duplicate. […] The MIC values are quoted in μg/mL.

A. baumannii NCTC 13424 = assay type: cell-based
Method: as §2

P. aeruginosa ATCC 27853 = assay type: cell-based
Method: as §2

HK-2 cells = assay: In vitro renal cell toxicity assay (HK-2); assay type: cell-based
Method: The in vitro renal cell toxicity assay was performed according to the following protocol. […] Cells were seeded at 7,500 cells per well in 96-well plates and allowed to adhere overnight. […] Water and DMSO levels were kept constant at 5% and 0.5% respectively. The test compounds were incubated with cells for 24 h at 37° C. 5% CO2 in a humidified atmosphere. […] Media only background values were subtracted before the data was analysed using GraphPad Prism. Individual values were normalised to the vehicle control wells for each compound. Compound concentration values were plotted as log values to enable a dose-response curve to be fitted. The bottom of the curve was constrained to zero and IC50 values were determined. IC50 values are expressed relative to that for PMB in the same experiment. Where multiple determinations have been made, median values are presented.

[1] = Kidney drug level after subcutaneous dose in mouse; assay type: in vivo; conditions: mouse, in vivo
Method: Four hours after dosing the animals were euthanised and kidneys removed, trimmed of fat and connective tissue, weighed and immediately snap-frozen. After thawing at room temperature, pairs of kidneys from each animal were placed in 2 mL conical tubes containing pre-weighed ceria-stabilised zirconium oxide beads. […] After 10 min. centrifugation at 13,000 rpm and 6° C., 200 μl of the supernatants were transferred into glass inserts and analysed by LC-MS-MS.

K. pneumoniae ATCC 13822 = assay type: cell-based
Method: as §2

[2] = cation-adjusted Mueller-Hinton Broth, 18-20 h, 35° C.

| Compound | MIC E. coli CA58 (E. coli CA58; [2]) | MIC K. pneumoniae CA64 (K. pneumoniae CA64; [2]) | MIC P. aeruginosa CCUG 59347 (P. aeruginosa CCUG 59347; [2]) | MIC P. aeruginosa ATCC 27853 (P. aeruginosa ATCC 27853; [2]) | HK-2 rel to PMB (HK-2 cells) | tissue level at time at 4 h ([1]; sc, 17.2 mg/kg) | MIC E. coli CA58 (E. coli CA58; CA58) | MIC K. pneumoniae CA64 (K. pneumoniae CA64; CA64) | MIC P. aeruginosa CCUG 59347 (P. aeruginosa CCUG 59347; CCUG 59347) | MIC P. aeruginosa ATCC 27853 (P. aeruginosa ATCC 27853; ATCC 27853) | also measured |
| --- | --- | --- | --- | --- | --- | --- | --- | --- | --- | --- | --- |
| CC(C)C[C@@H]1NC(=O)[C@@H](CC(C)C)NC(=O)[C@H](CCN)NC(=O)[C@@H](NC(=O)[C@H](CN)NC(=O)[C@@H](NC(=O)C[C@H](CN)Cc2ccccc2)[C@@H](C)O)CCNC(=O)[C@H]([C@@H](C)O)NC(=O)[C@H](CCN)NC(=O)[C@H](CCN)NC1=O [Example 7, (R)-4-amino-3- benzylbutanoyl -Thr- Dap-Cyclo[Dab-Dab- DLeu-Leu-Dab-Dab- Thr]. Isomer 1] ({GABA(3R-Bn)}-T[Dap][Dab][Dab][dL]L[Dab][Dab]T; lactam 3-C) | 16 µg/mL (≈ 14.7 µM) | 32 µg/mL (≈ 29.3 µM) | 0.25 µg/mL (≈ 0.229 µM) | – | – | – | – | – | – | – | MIC E. coli ATCC 25922 (E. coli ATCC 25922): 0.25 µg/mL (≈ 0.229 µM) |
| CC(C)C[C@@H]1NC(=O)[C@@H](CC(C)C)NC(=O)[C@H](CCN)NC(=O)[C@@H](NC(=O)[C@H](CN)NC(=O)[C@@H](NC(=O)C[C@@H](CN)Cc2ccccc2)[C@@H](C)O)CCNC(=O)[C@H]([C@@H](C)O)NC(=O)[C@H](CCN)NC(=O)[C@H](CCN)NC1=O [Example 8, (S)-4-amino-3- benzylbutanoyl-Thr- Dap-Cyclo[Dab-Dab- DLeu-Leu-Dab-Dab- Thr], Isomer 2] ({GABA(3S-Bn)}-T[Dap][Dab][Dab][dL]L[Dab][Dab]T; lactam 3-C) | 16 µg/mL (≈ 14.7 µM) | 32 µg/mL (≈ 29.3 µM) | 0.5 µg/mL (≈ 0.459 µM) | 0.06 µg/mL (≈ 0.055 µM) | – | – | – | – | – | – | MIC A. baumannii NCTC 13424 (A. baumannii NCTC 13424; [2]): 0.25 µg/mL (≈ 0.229 µM) |
| Cc1cccc([C@@H](CN)CC(=O)N[C@H](C(=O)N[C@@H](CN)C(=O)N[C@H]2CCNC(=O)[C@H]([C@@H](C)O)NC(=O)[C@H](CCN)NC(=O)[C@H](CCN)NC(=O)[C@H](CC(C)C)NC(=O)[C@@H](Cc3ccccc3)NC(=O)[C@H](CCN)NC2=O)[C@@H](C)O)c1 [Example 21, (S)-4-amino-3-(m- tolyl)butanoyl-Thr- Dap-Cyclo[Dab-Dab- DPhe-Leu-Dab-Dab- Thr]] (X10-T[Dap][Dab][Dab][dF]L[Dab][Dab]T; lactam 3-C) | – | – | – | – | 26.7 | 209000 ng/g | 16 µg/mL (≈ 14.2 µM) | 32 µg/mL (≈ 28.5 µM) | 0.5 µg/mL (≈ 0.445 µM) | 0.25 µg/mL (≈ 0.222 µM) | MIC K. pneumoniae ATCC 13822 (K. pneumoniae ATCC 13822; ATCC 13822): 0.25 µg/mL (≈ 0.222 µM) |
| CC[C@@H]1NC(=O)[C@@H](CC(C)C)NC(=O)[C@H](CCN)NC(=O)[C@@H](NC(=O)[C@H](CN)NC(=O)[C@@H](NC(=O)C[C@H](CN)c2cccc(Cl)c2)[C@@H](C)O)CCNC(=O)[C@H]([C@@H](C)O)NC(=O)[C@H](CCN)NC(=O)[C@H](CCN)NC1=O [Example 23] (X1-T[Dap][Dab][Dab][dL][Abu][Dab][Dab]T; lactam 3-C) | 32 µg/mL (≈ 29.6 µM) | 64 µg/mL (≈ 59.1 µM) | 0.5 µg/mL (≈ 0.462 µM) | 0.25 µg/mL (≈ 0.231 µM) | – | – | – | – | – | – | HK-2 rel to PMB (HK-2 cells; IC50 relative to PMB in the same experiment, 24 h): >41; tissue level at time at 4 h ([1]; mice, 17.2 mg/kg free base sc, 4 h, read-out: 4 hr kidney level): 263000 ng/g |
| CC[C@@H]1NC(=O)[C@@H](CC(C)C)NC(=O)[C@H](CCN)NC(=O)[C@@H](NC(=O)[C@H](CN)NC(=O)[C@@H](NC(=O)C[C@@H](CN)c2cccc(-c3ccccc3)c2)[C@@H](C)O)CCNC(=O)[C@H]([C@@H](C)O)NC(=O)[C@H](CCN)NC(=O)[C@H](CCN)NC1=O [Example 25] (X20-T[Dap][Dab][Dab][dL][Abu][Dab][Dab]T; lactam 3-C) | 16 µg/mL (≈ 14.2 µM) | 2 µg/mL (≈ 1.78 µM) | 0.5 µg/mL (≈ 0.445 µM) | 0.25 µg/mL (≈ 0.222 µM) | – | – | – | – | – | – | MIC E. coli ATCC 25922 (E. coli ATCC 25922): 0.25 µg/mL (≈ 0.222 µM); MIC K. pneumoniae ATCC 13822 (K. pneumoniae ATCC 13822; [2]): 0.5 µg/mL (≈ 0.445 µM) |
| CCCC[C@H]1NC(=O)[C@H](CCN)NC(=O)[C@@H](NC(=O)[C@H](CN)NC(=O)[C@@H](NC(=O)C[C@H](CN)c2cc(Cl)cc(Cl)c2)[C@@H](C)O)CCNC(=O)[C@H]([C@@H](C)O)NC(=O)[C@H](CCN)NC(=O)[C@H](CCN)NC(=O)[C@H](CC)NC1=O [Example 28, (S)-4-amino-3-(3,5- dichlorophenyl)butanoyl- Thr-Dap- Cyclo[Dab-Dab- DnorLeu-Abu-Dab- Dab-Thr]] (X18-T[Dap][Dab][Dab][dNle][Abu][Dab][Dab]T; lactam 3-C) | – | – | – | – | 68.5 | 408000 ng/g | 16 µg/mL (≈ 14.3 µM) | 8 µg/mL (≈ 7.16 µM) | 0.25 µg/mL (≈ 0.224 µM) | 0.25 µg/mL (≈ 0.224 µM) | MIC A. baumannii NCTC 13424 (A. baumannii NCTC 13424; NCTC 13424): 0.06 µg/mL (≈ 0.0537 µM) |
| CC[C@@H]1NC(=O)[C@@H](CC(C)C)NC(=O)[C@H](CCN)NC(=O)[C@@H](NC(=O)[C@H](CN)NC(=O)[C@@H](NC(=O)C[C@H](CN)c2cccc(-c3ccsc3)c2)[C@@H](C)O)CCNC(=O)[C@H]([C@@H](C)O)NC(=O)[C@H](CCN)NC(=O)[C@H](CCN)NC1=O [Example 30, (S)-4-amino-3-(3- (thiophen-3-yl)phenyl)butanoyl- Thr-Dap-Cyclo[Dab- Dab-DLeu-Abu-Dab- Dab-Thr]] (X14-T[Dap][Dab][Dab][dL][Abu][Dab][Dab]T; lactam 3-C) | – | – | – | – | 37.5 | 252000 ng/g | 8 µg/mL (≈ 7.08 µM) | 16 µg/mL (≈ 14.2 µM) | 0.5 µg/mL (≈ 0.442 µM) | 0.25 µg/mL (≈ 0.221 µM) | MIC A. baumannii NCTC 13424 (A. baumannii NCTC 13424; NCTC 13424): 0.06 µg/mL (≈ 0.0531 µM) |
| CC[C@@H]1NC(=O)[C@@H](CC(C)C)NC(=O)[C@H](CCN)NC(=O)[C@@H](NC(=O)[C@H](CN)NC(=O)[C@@H](NC(=O)C[C@@H](CN)c2cccc(-c3ccsc3)c2)[C@@H](C)O)CCNC(=O)[C@H]([C@@H](C)O)NC(=O)[C@H](CCN)NC(=O)[C@H](CCN)NC1=O [Example 31, (R)-4-amino-3-(3- (thiophen-3-yl)phenyl)butanoyl- Thr-Dap-Cyclo[Dab- Dab-DLeu-Abu-Dab- Dab-Thr]] (X23-T[Dap][Dab][Dab][dL][Abu][Dab][Dab]T; lactam 3-C) | – | – | – | – | – | – | 16 µg/mL (≈ 14.2 µM) | 4 µg/mL (≈ 3.54 µM) | 0.25 µg/mL (≈ 0.221 µM) | 0.25 µg/mL (≈ 0.221 µM) | MIC K. pneumoniae ATCC 13822 (K. pneumoniae ATCC 13822; ATCC 13822): 0.25 µg/mL (≈ 0.221 µM) |
| CC(C)C[C@@H]1NC(=O)[C@@H](Cc2ccccc2)NC(=O)[C@H](CCN)NC(=O)[C@@H](NC(=O)[C@H](CN)NC(=O)[C@@H](NC(=O)[C@H](CCN)c2ccc(Cl)cc2)[C@@H](C)O)CCNC(=O)[C@H]([C@@H](C)O)NC(=O)[C@H](CCN)NC(=O)[C@H](CCN)NC1=O [reference compound] (X24-T[Dap][Dab][Dab][dF]L[Dab][Dab]T; lactam 3-C) | – | – | – | – | – | – | – | – | – | – | Cytotoxicity (measured IC50 relative to that recorded for Polymyxin B) (HK-2 cells): 4.8; 4 hr kidney level/rel. cytotoxicity [1]: 111; Drug Level in Kidney (μg/g kidney, 4 h) ([1]; sc, 17.2 mg/kg): 533 μg/g kidney |
| CC(C)C[C@@H]1NC(=O)[C@@H](Cc2ccccc2)NC(=O)[C@H](CCN)NC(=O)[C@@H](NC(=O)[C@H](CN)NC(=O)[C@@H](NC(=O)[C@H](CCN)c2cccc(Cl)c2)[C@@H](C)O)CCNC(=O)[C@H]([C@@H](C)O)NC(=O)[C@H](CCN)NC(=O)[C@H](CCN)NC1=O [reference compound] (X25-T[Dap][Dab][Dab][dF]L[Dab][Dab]T; lactam 3-C) | – | – | – | – | – | – | – | – | – | – | Cytotoxicity (measured IC50 relative to that recorded for Polymyxin B) (HK-2 cells): 5.1; 4 hr kidney level/rel. cytotoxicity [1]: 115; Drug Level in Kidney (μg/g kidney, 4 h) ([1]; sc, 17.2 mg/kg): 589 μg/g kidney |
